Numbered stars: 1 amine (or outer) side, 2 acyl side, 3 side chain; on linkers, the order of the positions; unused ones are H or OH. Square brackets hold non-standard residues; d marks the D form. Side chains are listed from the residue outwards. * marks the point of attachment. C20 diacid = O=C(O)CCCCCCCCCCCCCCCCCCC(=O)*; C18 diacid = O=C(O)CCCCCCCCCCCCCCCCC(=O)*; γGlu = O=C(O)[C@H](CCC(=O)[*:2])N[*:1]; AEEA = NCCOCCOCC(=O)O; Aib = CC(C)(N)C(=O)O
Target: T1, human GLP-1 receptor (hGLP-1R) (Homo sapiens, UniProt P43220)
T1 construct: expressed in transfected cells
Experiment: GLP-1 receptor assay, method A (CRE-luciferase reporter, BHK cells)
Type: cell-based
Settings: hGLP-1R Potency, 1% HSA, EC50, method A, in the presence of 1% HSA
Protocol: (§1) To assess how the activation of the receptors is potentially influenced by the presence of human serum albumin (HSA), the in vitro assays were performed in the absence of HSA and presence of 1% (w/v) HSA.
Cells at approximately 80-90% confluence were washed once in PBS (Gibco 14190-094) and loosened from the cell flasks with Versene (Gibco, 15040-033). […] Cells were aliquoted and stored at −180° C. until use.
(§2) The assay buffer consisted of DMEM without phenol red (Gibco, 11880-028) supplemented with 1× GlutaMAX (Gibco, 35050-038), 10 mM HEPES (Gibco, 15630-056), 1% (w/v) ovalbumin (Sigma, A5503) and 0.1% (v/v) Pluronic F-68 (Gibco, 24040-032) either with HSA or without HSA (Sigma, A9511).
Frozen stocks of hGLP-1R BHK CRE-Luc cells were thawed in a 37° C. water bath, washed once in PBS (Gibco 14190-094) and diluted to 1.5×10^6 (1.5E+6) cells/mL in assay buffer with or without 2% (w/v) HSA (Sigma, A9511). […] The assay plates were incubated for 3 hours at 37° C. in 5% CO2, left at room temperature for 5 minutes after which 100 μL steadylite Plus™ (PerkinElmer/Revvity, 6066759) was added to each well. Plates were sealed and incubated at room temperature with gentle shaking for 30 minutes while protected from light. Luminescence was detected on a luminescence plate reader e.g., a Synergy 2 (BioTek).

T1 sequence (P43220 24-463): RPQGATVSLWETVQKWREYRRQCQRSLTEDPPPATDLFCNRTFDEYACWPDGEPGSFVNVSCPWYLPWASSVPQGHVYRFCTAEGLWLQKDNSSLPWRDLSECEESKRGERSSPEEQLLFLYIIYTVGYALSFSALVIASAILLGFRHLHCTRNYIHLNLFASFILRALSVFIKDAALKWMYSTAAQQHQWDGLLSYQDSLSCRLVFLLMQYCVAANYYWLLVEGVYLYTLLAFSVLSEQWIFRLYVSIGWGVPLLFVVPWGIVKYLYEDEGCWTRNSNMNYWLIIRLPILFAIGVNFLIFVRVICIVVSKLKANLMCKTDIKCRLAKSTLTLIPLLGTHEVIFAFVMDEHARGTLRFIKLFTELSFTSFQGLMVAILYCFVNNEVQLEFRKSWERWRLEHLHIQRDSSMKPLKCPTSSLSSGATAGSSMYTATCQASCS

“H[Aib]HGTFTSDYSILLEEQAAREFIEWLLAGGPSSGAGQAPGQAPGASHLSTAQTARLSAELHK([AEEA-AEEA-γGlu-C20 diacid])LATLPRTETGSGSP-NH2 [Compound 104]” was tested. Which EC50 did it give?
Its EC50 is 19.1 pM.

How did the EC50 turn out when “H[Aib]HGTFTSDYSILLEEQAAREFIEWLLAGGPSSGALAQTLAQTLASHLSTAQTQRLSAELHK([AEEA-AEEA-γGlu-C18 diacid])LATLPRTETGSGSP-NH2 [Compound 51]” was run?
Its EC50 is 32.2 pM.

With “H[Aib]HGTFTSDYSILLEEQAAREFIEWLLAGGPSSGALQAPGQAPGASHLSTAQTARLSAELHRLATLPK([AEEA-AEEA-γGlu-C18 diacid])TETGSGSP-NH2 [Compound 107]” as the substance, how does the EC50 read?
The EC50 was 13.9 pM.

With “H[Aib]HGTFTSDYSILLEEQAAREFIEWLLAGGPSSGALQAPGQAPGASHLSTAQTARLSAELHRLK([AEEA-AEEA-γGlu-C18 diacid])TLPRTETGSGSP-NH2 [Compound 106]” as the substance, how does the EC50 read?
Its EC50 is 11.1 pM.

Same assay, conditions: method A, absence of HSA; read-out: hGLP-1R Potency, no HSA, EC50

“H[Aib]HGTFTSDYSILLEEQAAREFIEWLLAGGPSSGAGQAPGQAPGASHLSTAQTARLSAELHK([AEEA-AEEA-γGlu-C20 diacid])LATLPRTETGSGSP-NH2 [Compound 104]” was tested. Which EC50 did it give?
Its EC50 is 4.16 pM.

For “H[Aib]HGTFTSDYSILLEEQAAREFIEWLLAGGPSSGALAQTLAQTLASHLSTAQTQRLSAELHK([AEEA-AEEA-γGlu-C18 diacid])LATLPRTETGSGSP-NH2 [Compound 51]”, which EC50 is on record?
Its EC50 is 7.68 pM.

“H[Aib]HGTFTSDYSILLEEQAAREFIEWLLAGGPSSGALQAPGQAPGASHLSTAQTARLSAELHRLATLPK([AEEA-AEEA-γGlu-C18 diacid])TETGSGSP-NH2 [Compound 107]” was tested. Which EC50 did it give?
Its EC50 is 4.1 pM.

Which EC50 does the source give for “H[Aib]HGTFTSDYSILLEEQAAREFIEWLLAGGPSSGALQAPGQAPGASHLSTAQTARLSAELHRLK([AEEA-AEEA-γGlu-C18 diacid])TLPRTETGSGSP-NH2 [Compound 106]” here?
Its EC50 is 3.33 pM.

Target: T2, human amylin receptor (hAMYR3) (Homo sapiens, UniProt O60896+P30988)
T2 construct: host or cells: BHK cells (Hollex-1 line expressing hCTR(a) and CRE-Luc), further transfected with human RAMP3
Experiment: Amylin receptor assay, method A (CRE-luciferase reporter, BHK cells)
Type: cell-based
Settings: hAMYR3 Potency, 1% HSA, EC50, method A, in the presence of 1% HSA
Protocol: as §1
It is thus possible to measure hAMYR3 activity using a CRE-luciferase reporter gene introduced into Baby Hamster Kidney (BHK) cells co-expressing the hAMYR3.
The cell line was further transfected with human receptor modifying protein 3 (RAMP3) using standard methods.
After centrifugation, the cell pellet was resuspended and diluted to approximately 2.5-4.0×10^6 (2.5E+6 to 4.0E+6) cells/mL in Recovery™ Cell Culture Freezing Medium (Gibco, 12648-010). Cells were aliquoted and stored at −180° C. until use.
as §2, with “15630-056) and” for “15630-056),”, “either with or without” for “and”, “24040-032) and” for “24040-032)”, “with” for “with HSA”
The plate was incubated over night at 37° C. in 5% CO2. […] Luminescence was detected on a luminescence plate reader e.g., a Synergy 2 (BioTek).

T2 sequence (P30988 25-474): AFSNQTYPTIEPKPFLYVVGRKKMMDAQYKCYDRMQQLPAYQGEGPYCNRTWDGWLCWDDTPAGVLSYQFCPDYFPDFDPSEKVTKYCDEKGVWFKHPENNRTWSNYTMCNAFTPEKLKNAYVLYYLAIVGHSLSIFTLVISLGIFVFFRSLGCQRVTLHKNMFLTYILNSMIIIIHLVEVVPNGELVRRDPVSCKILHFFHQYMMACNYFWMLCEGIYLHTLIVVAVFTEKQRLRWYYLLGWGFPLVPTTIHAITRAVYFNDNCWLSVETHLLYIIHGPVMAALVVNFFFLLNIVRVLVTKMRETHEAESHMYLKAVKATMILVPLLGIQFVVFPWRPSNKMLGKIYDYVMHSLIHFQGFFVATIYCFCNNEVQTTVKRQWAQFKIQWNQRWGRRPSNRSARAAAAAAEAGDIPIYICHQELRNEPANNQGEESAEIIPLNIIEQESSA
T2 sequence (O60896 24-148): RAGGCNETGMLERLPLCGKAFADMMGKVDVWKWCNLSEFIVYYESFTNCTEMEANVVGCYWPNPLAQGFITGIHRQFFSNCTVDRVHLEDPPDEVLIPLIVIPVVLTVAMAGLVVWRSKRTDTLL

“H[Aib]HGTFTSDYSILLEEQAAREFIEWLLAGGPSSGAGQAPGQAPGASHLSTAQTARLSAELHK([AEEA-AEEA-γGlu-C20 diacid])LATLPRTETGSGSP-NH2 [Compound 104]” was tested. Which EC50 did it give?
Its EC50 is 293 pM.

Which EC50 does the source give for “H[Aib]HGTFTSDYSILLEEQAAREFIEWLLAGGPSSGALAQTLAQTLASHLSTAQTQRLSAELHK([AEEA-AEEA-γGlu-C18 diacid])LATLPRTETGSGSP-NH2 [Compound 51]” here?
Its EC50 is 57.1 pM.

Which EC50 does the source give for “H[Aib]HGTFTSDYSILLEEQAAREFIEWLLAGGPSSGALQAPGQAPGASHLSTAQTARLSAELHRLATLPK([AEEA-AEEA-γGlu-C18 diacid])TETGSGSP-NH2 [Compound 107]” here?
The EC50 was 93.1 pM.

Which EC50 does the source give for “H[Aib]HGTFTSDYSILLEEQAAREFIEWLLAGGPSSGALQAPGQAPGASHLSTAQTARLSAELHRLK([AEEA-AEEA-γGlu-C18 diacid])TLPRTETGSGSP-NH2 [Compound 106]” here?
Its EC50 is 31.2 pM.

Same assay, conditions: method A, absence of HSA; read-out: hAMYR3 Potency, no HSA, EC50

For “H[Aib]HGTFTSDYSILLEEQAAREFIEWLLAGGPSSGAGQAPGQAPGASHLSTAQTARLSAELHK([AEEA-AEEA-γGlu-C20 diacid])LATLPRTETGSGSP-NH2 [Compound 104]”, which EC50 is on record?
Its EC50 is 1.49 pM.

“H[Aib]HGTFTSDYSILLEEQAAREFIEWLLAGGPSSGALAQTLAQTLASHLSTAQTQRLSAELHK([AEEA-AEEA-γGlu-C18 diacid])LATLPRTETGSGSP-NH2 [Compound 51]” was tested. Which EC50 did it give?
Its EC50 is 6.19 pM.

With “H[Aib]HGTFTSDYSILLEEQAAREFIEWLLAGGPSSGALQAPGQAPGASHLSTAQTARLSAELHRLATLPK([AEEA-AEEA-γGlu-C18 diacid])TETGSGSP-NH2 [Compound 107]” as the substance, how does the EC50 read?
Its EC50 is 3.07 pM.

How did the EC50 turn out when “H[Aib]HGTFTSDYSILLEEQAAREFIEWLLAGGPSSGALQAPGQAPGASHLSTAQTARLSAELHRLK([AEEA-AEEA-γGlu-C18 diacid])TLPRTETGSGSP-NH2 [Compound 106]” was run?
The EC50 was 2.07 pM.

Target: T3, human GIP receptor (hGIPR) (Homo sapiens, UniProt P48546)
T3 construct: expressed in transfected cells
T3 sequence (P48546 22-466): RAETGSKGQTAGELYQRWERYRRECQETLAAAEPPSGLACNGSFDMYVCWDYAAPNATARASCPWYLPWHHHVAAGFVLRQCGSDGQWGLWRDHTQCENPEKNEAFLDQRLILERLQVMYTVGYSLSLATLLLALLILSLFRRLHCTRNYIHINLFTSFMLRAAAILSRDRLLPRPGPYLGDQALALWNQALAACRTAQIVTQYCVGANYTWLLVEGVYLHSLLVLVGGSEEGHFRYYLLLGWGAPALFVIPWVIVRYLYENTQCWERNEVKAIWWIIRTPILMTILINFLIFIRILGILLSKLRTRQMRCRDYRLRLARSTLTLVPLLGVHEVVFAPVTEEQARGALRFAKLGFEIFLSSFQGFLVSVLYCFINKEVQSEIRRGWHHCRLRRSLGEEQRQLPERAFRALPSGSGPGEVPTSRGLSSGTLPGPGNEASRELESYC
Experiment: GIP receptor assay, method A (CRE-luciferase reporter, BHK cells)
Type: cell-based
Settings: hGIPR Potency, 1% HSA, EC50, method A, in the presence of 1% HSA
Protocol: To assess how the activation of the receptors is potentially influenced by the presence of human serum albumin (HSA), the in vitro assays were performed in the absence of HSA and presence of 1% (w/v) HSA. Unless stated otherwise the reference to the “GIP receptor assay as described in Example 4” throughout the specification shall refer to the described herein assay procedure method A (hGIPR assay) in the absence of HSA.
Activation of the human GIP receptor leads to increased intra-cellular concentrations of cyclic AMP (cAMP) and the consequent transcription activation from promoters containing multiple copies of the cAMP response element (CRE). It is thus possible to measure GIP receptor activity using a CRE-luciferase reporter gene introduced into Baby Hamster Kidney (BHK) cells co-expressing the human GIP receptor.
Cells at about 80-90% confluency were washed once with PBS (Gibco 14190-094) and detached from the cell flasks with Versene (Gibco, 15040-066). After centrifugation, the cells were counted, resuspended and diluted to approximately 1.5-3.0×10^6 (1.5E+6 to 3.0E+6) cells/mL in Recovery Cell Culture Freezing Medium (Gibco, 12648-010) and stored at −180° C. in suitable aliquots until use.
as §2
On the day before the assay hGIPR BHK Cre-Luc cells were thawed and plated out in 96 well Culture Plates (PerkinElmer/Revvity, 6005680) at 5.0×10^3 (5.0E+3) cells/well in growth medium as described above. The plates were then incubated for 21-23 hours at 37° C. with 5% CO2. On the day of the assay GLP-1-/GIP-/amylin-receptor tri-agonists or reference compounds were diluted in assay buffer using a 7-point, 10-fold titration plus a blank (absence of compound). Each compound was diluted and tested in duplicates in each experiment. In the plates containing the cells the growth medium was removed, and cells were washed twice with 100 μL PBS (Gibco 14190-094). 50 μL of the test compound dilutions were added to the plates containing cells preceded by 50 μL assay buffer with or without 2% (w/v) HSA (Sigma, A9511). The cell plates were incubated for 3 hours in a 5% CO2 incubator at 37° C. The plates were then transferred to room temperature followed by addition of 100 μL steadylite Plus™ (PerkinElmer/Revvity, 6066759). The plates were sealed and shaken for 30 minutes at room temperature while protected from light. Finally, luminescence (as an indicator of receptor activation) was measured on a Mithras reader (Berthold Technologies, DE). The EC50-values [pM] were calculated by non-linear curve fitting applying a four-parameter logistic model (Hill slope=“shared value for all datasets”) using GraphPad Prism (GraphPad Software, Boston, MA, USA).

For “H[Aib]HGTFTSDYSILLEEQAAREFIEWLLAGGPSSGAGQAPGQAPGASHLSTAQTARLSAELHK([AEEA-AEEA-γGlu-C20 diacid])LATLPRTETGSGSP-NH2 [Compound 104]”, which EC50 is on record?
Its EC50 is 17.3 pM.

With “H[Aib]HGTFTSDYSILLEEQAAREFIEWLLAGGPSSGALAQTLAQTLASHLSTAQTQRLSAELHK([AEEA-AEEA-γGlu-C18 diacid])LATLPRTETGSGSP-NH2 [Compound 51]” as the substance, how does the EC50 read?
Its EC50 is 61.9 pM.

With “H[Aib]HGTFTSDYSILLEEQAAREFIEWLLAGGPSSGALQAPGQAPGASHLSTAQTARLSAELHRLATLPK([AEEA-AEEA-γGlu-C18 diacid])TETGSGSP-NH2 [Compound 107]” as the substance, how does the EC50 read?
Its EC50 is 8.76 pM.

For “H[Aib]HGTFTSDYSILLEEQAAREFIEWLLAGGPSSGALQAPGQAPGASHLSTAQTARLSAELHRLK([AEEA-AEEA-γGlu-C18 diacid])TLPRTETGSGSP-NH2 [Compound 106]”, which EC50 is on record?
Its EC50 is 10.3 pM.

Same assay, conditions: method A, absence of HSA; read-out: hGIPR Potency, no HSA, EC50

With “H[Aib]HGTFTSDYSILLEEQAAREFIEWLLAGGPSSGAGQAPGQAPGASHLSTAQTARLSAELHK([AEEA-AEEA-γGlu-C20 diacid])LATLPRTETGSGSP-NH2 [Compound 104]” as the substance, how does the EC50 read?
The EC50 was 3.57 pM.

How did the EC50 turn out when “H[Aib]HGTFTSDYSILLEEQAAREFIEWLLAGGPSSGALAQTLAQTLASHLSTAQTQRLSAELHK([AEEA-AEEA-γGlu-C18 diacid])LATLPRTETGSGSP-NH2 [Compound 51]” was run?
The EC50 was 8.37 pM.

For “H[Aib]HGTFTSDYSILLEEQAAREFIEWLLAGGPSSGALQAPGQAPGASHLSTAQTARLSAELHRLATLPK([AEEA-AEEA-γGlu-C18 diacid])TETGSGSP-NH2 [Compound 107]”, which EC50 is on record?
Its EC50 is 3.87 pM.

For “H[Aib]HGTFTSDYSILLEEQAAREFIEWLLAGGPSSGALQAPGQAPGASHLSTAQTARLSAELHRLK([AEEA-AEEA-γGlu-C18 diacid])TLPRTETGSGSP-NH2 [Compound 106]”, which EC50 is on record?
The EC50 was 4.8 pM.
